In patent publication US20170239307A1, “COMPOSITION OF DOXYCYCLINE IN LIPOSOMES FOR THE PREVENTION, IMPROVEMENT AND/OR TREATMENT OF OCULAR PATHOLOGIES” (AGENCIA PÚBLICA EMPRESARIAL SANITARIA HOSPITAL ALTO …, priority 2014, published 2017):

Tests used:
[1] = system: diabetic retinopathy; test: Case report: supervision of the fundus of the eye in a diabetic patient; assay type: in vivo; conditions: diabetic patient with high blood glucose; treatment orally and as eye drops from 11 Feb. 2009
[2] = system: vascular intimal layer; conditions: patients taking doxycycline; cited from earlier work
[3] = system: aneurysmal dilatation; conditions: rats; cited from earlier work
[4] = system: symptoms derived from blepharitis-dry eye like disease; test: Symptom score according to the dry eye questionnaire; assay type: in vivo, patients
Source text: FIG. 2. Individual analysis of each patient according to dry eye questionnaire score. All patients completed a questionnaire to evaluate the symptoms derived from blepharitis-dry eye like disease. […] FIG. 3. […] This figure complements FIG. 2. This test was designed (see test design literature) for assessing the symptoms the patient experiences and they can be expressed by means of a score based on questions about these symptoms.

[5] = system: thrombosis; conditions: certain groups of hemodialysis patients; cited from earlier work
[6] = system: chronic anterior and posterior blepharitis; test: Case report: patient with blepharitis and glycemic decompensation, clinic examinations; conditions: same patient; high doses of oral doxycycline prescribed for 20 days, treatment abandoned
Source text: Treatment with tobramycin and dexamethasone in the form of eye drops and artificial tears was established at that time.

C[C@H]1c2cccc(O)c2C(O)=C2C(=O)[C@]3(O)C(=O)/C(=C(/N)O)C(=O)[C@@H](N(C)C)[C@@H]3[C@@H](O)[C@@H]21 [doxycycline, (2Z,4S,4aR,5S,5aR,6R,12aS)-2-(amino-hydroxymethylidene)-4-dimethylamino-5,10,11,12a-tetrahydroxy-6-methyl-4a,5,5a,6-tetrahydro-4H-tetracene-1,3,12-trione]
signs of diabetic retinopathy [1]: no signs of diabetic retinopathy | vascular intimal layer proliferation and muscle cell migration [2]: less vascular intimal layer proliferation as well as less muscle cell migration | aneurysmal dilatation [3]: capable of preventing aneurysmal dilatation without subsequent signs of inflammation | symptom score, dry eye questionnaire, each patient ([4]; 12 blepharitis patients, before treatment at least moderate, most severe, FIG. 2): symptoms improved | sum of all the scores in all patients, dry eye questionnaire ([4]; before vs after treatment, FIG. 3): Symptoms decreased significantly | prevention of thrombosis [5]: effective in the prevention of thrombosis | intolerance / side effect [6]: an episode of gastritis
